{"source": "paper PMC5218480", "about": "(PLoS ONE, 2017)", "system": "MV-4-11 cells", "assay": "Gene expression microarray analysis (Affymetrix PrimeView) and GSEA", "assay_type": "cell-based, human", "set-up": "RFU PODN (11730768_x_at) / Fold change /veh PODN (11730768_x_at) / RFU LINC00158 (11744669_a_at) / Fold change /veh LINC00158 (11744669_a_at) / RFU DUSP10 (11751237_a_at) / Fold change /veh DUSP10 (11751237_a_at) / RFU ID3 (11757404_x_at) / Fold change /veh ID3 (11757404_x_at) / RFU PLEKHG5 (11737974_s_at) / Fold change /veh PLEKHG5 (11737974_s_at) / RFU LRRC4B (11730491_at) / Fold change /veh LRRC4B (11730491_at) / RFU GIMAP4 (11747438_a_at) / Fold change /veh GIMAP4 (11747438_a_at) / RFU KRT8 (11758183_x_at) / Fold change /veh KRT8 (11758183_x_at) / RFU CNN1 (11734310_a_at) / Fold change /veh CNN1 (11734310_a_at) / RFU VPS37D (11726825_at) / Fold change /veh VPS37D (11726825_at) / RFU C10orf10 (11716522_x_at) / Fold change /veh C10orf10 (11716522_x_at) / RFU KIR2DL2 /// KIR2DL4 /// KIR2DL5A /// KIR2DL5B /// KIR2DS1 /// KIR2DS2 /// KIR2DS3 /// KIR2DS4 /// KIR3DL3 /// KIR3DL3 /// KIR3DS1 (11738374_at) / Fold change /veh KIR2DL2 /// KIR2DL4 /// KIR2DL5A /// KIR2DL5B /// KIR2DS1 /// KIR2DS2 /// KIR2DS3 /// KIR2DS4 /// KIR3DL3 /// KIR3DL3 /// KIR3DS1 (11738374_at) / RFU C1QL1 (11718748_at) / Fold change /veh C1QL1 (11718748_at) / RFU TMPRSS4 (11747572_a_at) / Fold change /veh TMPRSS4 (11747572_a_at) / RFU HAMP (11756126_x_at) / Fold change /veh HAMP (11756126_x_at) / RFU RNFT2 (11725882_a_at) / Fold change /veh RNFT2 (11725882_a_at) / RFU NR4A2 (11747474_a_at) / Fold change /veh NR4A2 (11747474_a_at) / RFU ABCC12 (11746883_a_at) / Fold change /veh ABCC12 (11746883_a_at) / RFU TMEM136 (11760407_x_at) / Fold change /veh TMEM136 (11760407_x_at) / RFU CLDN22 /// WWC2 (11732394_at) / Fold change /veh CLDN22 /// WWC2 (11732394_at) / RFU HLA-DPB1 (11760878_x_at) / Fold change /veh HLA-DPB1 (11760878_x_at) / RFU SPINT1 (11716480_a_at) / Fold change /veh SPINT1 (11716480_a_at) / RFU GAP43 (11754022_s_at) / Fold change /veh GAP43 (11754022_s_at) / RFU A4GNT (11735810_at) / Fold change /veh A4GNT (11735810_at) / RFU PRB3 (11715151_x_at) / Fold change /veh PRB3 (11715151_x_at) / RFU TUBB4B (11761932_at) / Fold change /veh TUBB4B (11761932_at) / RFU CAPN14 (11732068_a_at) / Fold change /veh CAPN14 (11732068_a_at) / RFU TMCC2 (11721928_a_at) / Fold change /veh TMCC2 (11721928_a_at) / RFU IRGQ (11745062_a_at) / Fold change /veh IRGQ (11745062_a_at) / RFU FAM174B (11720279_a_at) / Fold change /veh FAM174B (11720279_a_at) / RFU TMPRSS4 (11748680_a_at) / Fold change /veh TMPRSS4 (11748680_a_at) / RFU FAM212B (11763350_a_at) / Fold change /veh FAM212B (11763350_a_at) / RFU PLEKHG5 (11743358_a_at) / Fold change /veh PLEKHG5 (11743358_a_at) / RFU ZSCAN30 (11745921_a_at) / Fold change /veh ZSCAN30 (11745921_a_at) / RFU CMKLR1 (11741424_a_at) / Fold change /veh CMKLR1 (11741424_a_at) / RFU LOC101060620 /// MAPK8IP1 (11723275_at) / Fold change /veh LOC101060620 /// MAPK8IP1 (11723275_at) / RFU SPTSSB (11747773_x_at) / Fold change /veh SPTSSB (11747773_x_at) / RFU PRSS12 (11739890_at) / Fold change /veh PRSS12 (11739890_at) / RFU BIN1 (11741810_x_at) / Fold change /veh BIN1 (11741810_x_at) / RFU WNT11 (11732464_a_at) / Fold change /veh WNT11 (11732464_a_at) / RFU C10orf10 (11716521_a_at) / Fold change /veh C10orf10 (11716521_a_at) / RFU C5orf56 (11738089_at) / Fold change /veh C5orf56 (11738089_at) / RFU CYB561 (11721691_x_at) / Fold change /veh CYB561 (11721691_x_at) / RFU ANKRD19P (11752326_a_at) / Fold change /veh ANKRD19P (11752326_a_at) / RFU OR2T12 /// OR2T33 /// OR2T8 (11738714_s_at) / Fold change /veh OR2T12 /// OR2T33 /// OR2T8 (11738714_s_at) / RFU VCAN (11748164_a_at) / Fold change /veh VCAN (11748164_a_at) / RFU JSRP1 (11732532_at) / Fold change /veh JSRP1 (11732532_at) / RFU KRTAP10-11 (11738290_x_at) / Fold change /veh KRTAP10-11 (11738290_x_at) / RFU MYO3A (11730013_a_at) / Fold change /veh MYO3A (11730013_a_at) / RFU EBF3 (11725865_a_at) / Fold change /veh EBF3 (11725865_a_at) / RFU CAMK2N1 (11719241_x_at) / Fold change /veh CAMK2N1 (11719241_x_at) / RFU C5orf56 (11738088_a_at) / Fold change /veh C5orf56 (11738088_a_at) / RFU OLFML3 (11715873_a_at) / Fold change /veh OLFML3 (11715873_a_at) / RFU LOC100653217 /// NTM (11731650_a_at) / Fold change /veh LOC100653217 /// NTM (11731650_a_at) / RFU MAPK11 (11762145_a_at) / Fold change /veh MAPK11 (11762145_a_at) / RFU FIZ1 (11724087_x_at) / Fold change /veh FIZ1 (11724087_x_at) / RFU OASL (11726364_x_at) / Fold change /veh OASL (11726364_x_at) / RFU SOX15 (11748057_x_at) / Fold change /veh SOX15 (11748057_x_at) / RFU CD79A (11719716_a_at) / Fold change /veh CD79A (11719716_a_at) / RFU HIST1H1D (11736915_at) / Fold change /veh HIST1H1D (11736915_at) / RFU CASKIN2 (11723855_a_at) / Fold change /veh CASKIN2 (11723855_a_at) / RFU LOC730098 (11760151_x_at) / Fold change /veh LOC730098 (11760151_x_at) / RFU OR4N2 (11742367_at) / Fold change /veh OR4N2 (11742367_at) / RFU PRRT2 (11749266_a_at) / Fold change /veh PRRT2 (11749266_a_at) / RFU SNX32 (11753110_a_at) / Fold change /veh SNX32 (11753110_a_at) / RFU CDHR5 (11726645_a_at) / Fold change /veh CDHR5 (11726645_a_at) / RFU RCAN1 (11760418_a_at) / Fold change /veh RCAN1 (11760418_a_at) / RFU FAM167A (11723789_a_at) / Fold change /veh FAM167A (11723789_a_at) / RFU FAM26E (11764081_at) / Fold change /veh FAM26E (11764081_at) / RFU ISYNA1 (11749810_s_at) / Fold change /veh ISYNA1 (11749810_s_at) / RFU ACY1 (11761880_at) / Fold change /veh ACY1 (11761880_at) / RFU 11764098_at / Fold change /veh 11764098_at / RFU SAMD14 (11745864_x_at) / Fold change /veh SAMD14 (11745864_x_at) / RFU NPB (11741838_a_at) / Fold change /veh NPB (11741838_a_at) / RFU TMPRSS6 (11731388_a_at) / Fold change /veh TMPRSS6 (11731388_a_at) / RFU KRTAP10-2 (11738614_at) / Fold change /veh KRTAP10-2 (11738614_at) / RFU ARHGAP8 /// PRR5-ARHGAP8 (11727945_x_at) / Fold change /veh ARHGAP8 /// PRR5-ARHGAP8 (11727945_x_at) / RFU KRTAP5-7 /// NADSYN1 (11734609_at) / Fold change /veh KRTAP5-7 /// NADSYN1 (11734609_at) / RFU RASL12 (11751679_a_at) / Fold change /veh RASL12 (11751679_a_at) / RFU CDKN2B (11736163_a_at) / Fold change /veh CDKN2B (11736163_a_at) / RFU PRF1 (11729649_at) / Fold change /veh PRF1 (11729649_at) / RFU, ZNF638 /// ZNF638-IT1 / Fold change vs veh, ZNF638 /// ZNF638-IT1 / RFU, PANK3 / Fold change vs veh, PANK3 / RFU, SH3YL1 / Fold change vs veh, SH3YL1 / RFU, ZEB2 / Fold change vs veh, ZEB2 / RFU, NRIP1 / Fold change vs veh, NRIP1 / RFU, PTTG1IP / Fold change vs veh, PTTG1IP / RFU, CAPN2 / Fold change vs veh, CAPN2 / RFU, MED14 / Fold change vs veh, MED14 / RFU, SNORA58 / Fold change vs veh, SNORA58 / RFU, C1orf63 / Fold change vs veh, C1orf63 / RFU, LRRFIP1 / Fold change vs veh, LRRFIP1 / RFU, NDUFAF7 / Fold change vs veh, NDUFAF7 / RFU, SLC12A2 / Fold change vs veh, SLC12A2 / RFU, IBTK / Fold change vs veh, IBTK / RFU, ESF1 / Fold change vs veh, ESF1 / Fold change vs veh, TMEM50B / RFU, TAOK1 / Fold change vs veh, TAOK1 / RFU, ACBD3 / Fold change vs veh, ACBD3 / RFU, TMA16 / Fold change vs veh, TMA16 / RFU, RWDD3 / Fold change vs veh, RWDD3 / RFU, BCAT1 / Fold change vs veh, BCAT1 / RFU, EDEM3 / Fold change vs veh, EDEM3 / RFU, TMEM33 / Fold change vs veh, TMEM33 / RFU, WDR75 / Fold change vs veh, WDR75 / RFU, AHCTF1 / Fold change vs veh, AHCTF1 / RFU, TFRC / Fold change vs veh, TFRC / RFU, ZDHHC17 / Fold change vs veh, ZDHHC17 / RFU, NOM1 / Fold change vs veh, NOM1 / RFU, ARL8B / Fold change vs veh, ARL8B / RFU, ZBTB11 / Fold change vs veh, ZBTB11 / RFU, TAMM41 / Fold change vs veh, TAMM41 / RFU, KIAA1704 /// LOC100996395 / Fold change vs veh, KIAA1704 /// LOC100996395 / RFU, ING1 / Fold change vs veh, ING1 / RFU, TRMT61B / Fold change vs veh, TRMT61B / RFU, FUBP3 / Fold change vs veh, FUBP3 / RFU, TP53 / Fold change vs veh, TP53 / RFU, TNKS2 / Fold change vs veh, TNKS2 / RFU, ZFP14 / Fold change vs veh, ZFP14 / RFU, ACTR2 / Fold change vs veh, ACTR2 / RFU, PPP3R1 / Fold change vs veh, PPP3R1 / RFU, PIK3R1 / Fold change vs veh, PIK3R1 / RFU, HNRNPA1 / Fold change vs veh, HNRNPA1 / RFU, RNF170 / Fold change vs veh, RNF170 / RFU, ZNF28 / Fold change vs veh, ZNF28 / RFU, RNGTT / Fold change vs veh, RNGTT / RFU, OGT / Fold change vs veh, OGT / RFU, BRD1 / Fold change vs veh, BRD1 / RFU, MARS / Fold change vs veh, MARS / RFU, ZNF655 / Fold change vs veh, ZNF655 / RFU, FAHD1 / Fold change vs veh, FAHD1 / RFU, BDP1 / Fold change vs veh, BDP1 / RFU, LRRCC1 / Fold change vs veh, LRRCC1 / RFU, ARID1A / Fold change vs veh, ARID1A / RFU, ZNF146 / Fold change vs veh, ZNF146 / RFU, ZNF330 / Fold change vs veh, ZNF330 / RFU, GPN3 / Fold change vs veh, GPN3 / RFU, C9orf123 / Fold change vs veh, C9orf123 / RFU, N4BP2L2 / Fold change vs veh, N4BP2L2 / RFU, ARFIP1 / Fold change vs veh, ARFIP1 / RFU, FAM179B / Fold change vs veh, FAM179B / RFU, BCL10 / Fold change vs veh, BCL10 / RFU, UHRF1BP1L / Fold change vs veh, UHRF1BP1L / RFU, BET1 / Fold change vs veh, BET1 / RFU, CNOT2 / Fold change vs veh, CNOT2 / RFU, ZNF268 / Fold change vs veh, ZNF268 / Fold change vs veh, ZNF507 / RFU, DGCR2 / Fold change vs veh, DGCR2 / RFU, WDSUB1 / Fold change vs veh, WDSUB1 / Fold change vs veh, HSP90B1 /// MIR3652 / RFU, ADSS / Fold change vs veh, ADSS / RFU, GK / Fold change vs veh, GK / RFU, ZNF148 / Fold change vs veh, ZNF148 / RFU, TAF9 / Fold change vs veh, TAF9 / RFU, SLC1A5 / Fold change vs veh, SLC1A5 / RFU, SLMO2 / Fold change vs veh, SLMO2 / RFU, ABCC4 / Fold change vs veh, ABCC4 / RFU, LOC101060439 /// RAP1B / Fold change vs veh, LOC101060439 /// RAP1B / RFU, RFX7 / Fold change vs veh, RFX7 / RFU, GTPBP10 / Fold change vs veh, GTPBP10 / RFU, CNEP1R1 / Fold change vs veh, CNEP1R1 / RFU, BIVM-ERCC5 /// ERCC5 / Fold change vs veh, BIVM-ERCC5 /// ERCC5 / RFU, ILF3 / Fold change vs veh, ILF3 / RFU 11762660_at / Fold change /veh 11762660_at / RFU VCAN (11757783_s_at) / Fold change /veh VCAN (11757783_s_at) / RFU DDX43 (11728927_at) / Fold change /veh DDX43 (11728927_at) / RFU KRT8 (11758188_x_at) / Fold change /veh KRT8 (11758188_x_at) / RFU NKD1 (11759106_at) / Fold change /veh NKD1 (11759106_at) / RFU SRD5A1 (11742802_a_at) / Fold change /veh SRD5A1 (11742802_a_at) / RFU TPSAB1 /// TPSB2 (11721975_s_at) / Fold change /veh TPSAB1 /// TPSB2 (11721975_s_at) / RFU GSTM3 (11746129_a_at) / Fold change /veh GSTM3 (11746129_a_at) / RFU IL23R (11737362_x_at) / Fold change /veh IL23R (11737362_x_at) / RFU TMEM51 (11727254_a_at) / Fold change /veh TMEM51 (11727254_a_at) / RFU PIWIL2 (11732686_x_at) / Fold change /veh PIWIL2 (11732686_x_at) / RFU ORM1 (11744905_x_at) / Fold change /veh ORM1 (11744905_x_at) / RFU CCDC152 (11743942_at) / Fold change /veh CCDC152 (11743942_at) / RFU ECM1 (11717891_a_at) / Fold change /veh ECM1 (11717891_a_at) / RFU IL23R (11748794_a_at) / Fold change /veh IL23R (11748794_a_at) / RFU TNFAIP8L3 (11732012_x_at) / Fold change /veh TNFAIP8L3 (11732012_x_at) / RFU MBOAT4 (11741988_at) / Fold change /veh MBOAT4 (11741988_at) / RFU 11764193_at / Fold change /veh 11764193_at / RFU TMEM53 (11763286_at) / Fold change /veh TMEM53 (11763286_at) / RFU MAGEB2 (11727129_at) / Fold change /veh MAGEB2 (11727129_at) / RFU TMEM200A (11744735_a_at) / Fold change /veh TMEM200A (11744735_a_at) / RFU CCDC152 (11751479_a_at) / Fold change /veh CCDC152 (11751479_a_at) / RFU FAM211A (11726209_a_at) / Fold change /veh FAM211A (11726209_a_at) / RFU RGS16 (11746705_a_at) / Fold change /veh RGS16 (11746705_a_at) / RFU VCAN (11755009_s_at) / Fold change /veh VCAN (11755009_s_at) / RFU RHOB (11743442_s_at) / Fold change /veh RHOB (11743442_s_at) / RFU RGS16 (11720943_a_at) / Fold change /veh RGS16 (11720943_a_at) / RFU RGS16 (11720944_at) / Fold change /veh RGS16 (11720944_at) / RFU, VPS4B / Fold change vs veh, VPS4B / RFU, CREB1 / Fold change vs veh, CREB1 / RFU, DNAJC13 / Fold change vs veh, DNAJC13 / RFU, GNAQ / Fold change vs veh, GNAQ / RFU, CDK5R1 / Fold change vs veh, CDK5R1 / RFU, ZRANB3 / Fold change vs veh, ZRANB3 / RFU, CUL4A / Fold change vs veh, CUL4A / RFU, CCNY / Fold change vs veh, CCNY / RFU, UFL1 / Fold change vs veh, UFL1 / RFU, COG3 / Fold change vs veh, COG3 / RFU, DIAPH2 / Fold change vs veh, DIAPH2 / RFU, SKA2 / Fold change vs veh, SKA2 / RFU, AFF3 / Fold change vs veh, AFF3 / RFU, LMF1 / Fold change vs veh, LMF1 / RFU, IPO11 / Fold change vs veh, IPO11 / RFU, DFFB / Fold change vs veh, DFFB / RFU, FOXP1 / Fold change vs veh, FOXP1 / RFU, CARD8 / Fold change vs veh, CARD8 / RFU, STRN3 / Fold change vs veh, STRN3 / RFU, ADK / Fold change vs veh, ADK / RFU, RASSF2 / Fold change vs veh, RASSF2 / RFU, WIPF1 / Fold change vs veh, WIPF1 / RFU, LARP1B / Fold change vs veh, LARP1B / RFU, RASA1 / Fold change vs veh, RASA1 / RFU, RB1 / Fold change vs veh, RB1 / RFU, PPFIA1 / Fold change vs veh, PPFIA1 / RFU, MAT2A / Fold change vs veh, MAT2A / RFU, CCT5 / Fold change vs veh, CCT5 / RFU, WDR92 / Fold change vs veh, WDR92 / RFU, CUX1 / Fold change vs veh, CUX1 / RFU, TTC7A / Fold change vs veh, TTC7A / RFU, TMEM135 / Fold change vs veh, TMEM135 / RFU, DEPTOR / Fold change vs veh, DEPTOR / RFU, CPM / Fold change vs veh, CPM / RFU, DNAJB6 / Fold change vs veh, DNAJB6 / RFU, CACNA2D3 / Fold change vs veh, CACNA2D3 / RFU, DTX4 / Fold change vs veh, DTX4 / RFU, TFCP2 / Fold change vs veh, TFCP2 / RFU, GMCL1 /// GMCL1P1 / Fold change vs veh, GMCL1 /// GMCL1P1 / RFU, AEBP2 / Fold change vs veh, AEBP2 / RFU, SNHG1 /// SNORD22 /// SNORD25 /// SNORD26 /// SNORD27 /// SNORD28 /// SNORD29 /// SNORD31 / Fold change vs veh, SNHG1 /// SNORD22 /// SNORD25 /// SNORD26 /// SNORD27 /// SNORD28 /// SNORD29 /// SNORD31 / Fold change (Aza/veh), C12orf56 (ProbeSet 11735607_a_at) / Fold change (ACY-1035/veh), C12orf56 (ProbeSet 11735607_a_at) / Fold change (Aza/veh), FGFR1OP (ProbeSet 11751329_s_at) / Fold change (ACY-1035/veh), FGFR1OP (ProbeSet 11751329_s_at) / Fold change (Aza/veh), VPS36 (ProbeSet 11739960_a_at) / Fold change (ACY-1035/veh), VPS36 (ProbeSet 11739960_a_at) / RFU SYPL1 (11715823_x_at) / Fold change /veh SYPL1 (11715823_x_at) / RFU IGFBP7 (11715501_s_at) / Fold change /veh IGFBP7 (11715501_s_at) / RFU REEP3 (11722064_at) / Fold change /veh REEP3 (11722064_at) / RFU IGLL1 (11728026_x_at) / Fold change /veh IGLL1 (11728026_x_at): dose or concentration left out as unconfirmed", "settings": "MV-4-11 cells, 48 hours", "data": [{"smiles": "Nc1ncn([C@@H]2O[C@H](CO)[C@@H](O)[C@H]2O)c(=O)n1", "note": "[azacitidine]", "values": [{"measurement": "RFU CLDN22 /// WWC2 (11732394_at)", "result": 8.78, "unit": "RFU"}]}]}
